# In patent US6461997B1, “Triazole sulfones having herbicidal activity” (Monsanto Technology LLC, priority 1999, dated 2002):
# Key:
# DATST (jimsonweed) = experiment: Pre-emergence herbicidal activity, warm season; type: in vivo, Datura stramonium; conditions: GR80 = lowest tested rate (300, 100, 30, 10 g/ha) with 80% or greater inhibition; approx. 14 days after treating; 30/21° C.
# Method in brief: (§1)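 GR80 values derive from percent inhibition relative to untreated plants, read roughly 14 days after sowing and pre-emergence soil-surface treatment (compound in 50:50 acetone/water; rates typically 10, 30, 100, 300 g/ha). Warm-season weeds grew at 30/21° C day/night, cool-season ones at 18/13° C; an asterisk marks activity without reaching 80% at the highest rate.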
# KCHSC (kochia) [1] = experiment: Pre-emergence herbicidal activity, cool season; type: in vivo, Kochia scoparia; conditions: lowest tested rate with 80% or greater inhibition; rates 300, 100, 30, 10 g/ha; about 14 days
# Protocol: Tables 5 to 8 summarize results of tests conducted as described below to determine the pre-emergence herbicidal activity, in the form of a GR80 value, of illustrative compounds of this invention. […] Compounds of the invention were typically applied at rates of 300, 100, 30, and 10 g/ha. Where herbicidal activity was evident but 80% inhibition was not achieved at the highest rate tested, an asterisk (*) is shown in the following tables.
# The pre-emergence tests were conducted by the following procedure. Topsoil was sieved to pass through a 1.27 cm screen. Fertilizer was added to the topsoil and the mixture was then sterilized by heating. The topsoil mixture was placed in a pot and compacted to a depth of 1.0 to 1.25 cm from the top of the pot. Seeds of each of several monocotyledonous and dicotyledonous annual plant species were placed on top of the soil. Additional soil was subsequently placed over the seeds to level-fill the pot. A known amount of each test compound dissolved or suspended in an appropriate organic solvent was diluted with a 50:50 mix of acetone and water and applied to the surface of the soil. After treatment the plants were placed in a greenhouse where they received 0.64 cm of overhead irrigation. All subsequent watering consisted of a light overhead mist and/or subirrigation as needed for germination and growth. Tables 5 and 6 below relate to warm season plant species which were placed after pre-emergence treatment in a greenhouse with a 30/21° C. day/night temperature regime. Tables 7 and 8 below relates to cool season plant species placed after pre-emergence treatment in a greenhouse or growth chamber with an 18/13° C. day/night temperature regime.
# (§2) Approximately 14 days after planting and treating, the plants were observed and herbicidal efficacy recorded as percent inhibition by comparison with untreated plants.
# The plant species usually regarded as weeds which were utilized in the tests are identified in the tables below according to the following legend, in which “d” indicates a dicotyledonous species and “m” a monocotyledonous species. All monocotyledonous species included in the tests herein are grasses.
# BROTE (downy brome) = experiment: Pre-emergence herbicidal activity, cool season; type: in vivo, Bromus tectorum; conditions: GR80 = lowest tested rate (300, 100, 30, 10 g/ha) with 80% or greater inhibition; approx. 14 days after treating; 18/13° C.
# Method in brief: as §1
# CONAR (field bindweed) [2] = experiment: Pre-emergence herbicidal activity, warm season; type: in vivo, Convolvulus arvensis; conditions: GR80 = lowest tested rate (300, 100, 30, 10 g/ha) with 80% or greater inhibition; approx. 14 days after treating; 30/21° C.
# Method in brief: as §1
# [3] = test system: IPOSS (annual morningglory); experiment: Pre-plant incorporated (PPI) herbicidal activity, warm season; type: in vivo, Ipomoea spp.; conditions: PPI application
# Protocol: (§3) In another set of tests, the pre-plant incorporated (PPI) activity of compounds of this invention was evaluated on the same species as for the pre-emergence tests described above. In the PPI tests the following procedure, designed to simulate PPI application, was used.
# (§4) A pre-prepared topsoil mixture (described above) was placed in a pot and compacted to a depth of 1.0 to 1.25 cm from the top of the pot. Seeds of each of several monocotyledonous and dicotyledonous annual plant species were placed on top of the soil. A sufficient quantity of soil to cover the seeds and level fill the pot was weighed into an open container. A known amount of the test compound was dissolved or suspended in an organic solvent and applied by spraying to this cover soil. The cover soil was thoroughly mixed to distribute the test compound throughout the cover soil, and was then applied as a cover layer over the seeds. Untreated soil was used as a cover layer for control pots. After treatment the plants were placed in a greenhouse where they received 0.64 cm of overhead irrigation. All subsequent watering consisted of a light overhead mist and/or subirrigation as needed for germination and growth. Tables 9 and 10 below relate to warm season plant species which were placed after pre-emergence treatment in a greenhouse with a 30/21° C. day/night temperature regime. Tables 11 and 12 below relates to cool season plant species placed after pre-emergence treatment in a greenhouse or growth chamber with an 18/13° C. day/night temperature regime. Only the compounds of Examples 1, 6, 8, 11, 13 and 15-20 were included in PPI tests.
# as §2
# LOLMG (annual ryegrass) = experiment: Pre-emergence herbicidal activity, cool season; type: in vivo, Lolium multiflorum; conditions: GR80 = lowest tested rate (300, 100, 30, 10 g/ha) with 80% or greater inhibition; approx. 14 days after treating; 18/13° C.
# Method in brief: as §1
# [4] = test system: AGRRE (quackgrass (seedling)); experiment: Pre-emergence herbicidal activity, cool season; type: in vivo, Elymus repens; conditions: GR80 = lowest tested rate (300, 100, 30, 10 g/ha) with 80% or greater inhibition; approx. 14 days after treating; 18/13° C.
# Method in brief: as §1
# AVEFA (wild oat) = experiment: Pre-emergence herbicidal activity, cool season; type: in vivo, Avena fatua; conditions: GR80 = lowest tested rate (300, 100, 30, 10 g/ha) with 80% or greater inhibition; approx. 14 days after treating; 18/13° C.
# Method in brief: as §1
# [5] = test system: CIRAR (canada thistle (seedling)); experiment: Pre-plant incorporated (PPI) herbicidal activity, warm season; type: in vivo, Cirsium arvense; conditions: GR80 = lowest tested rate with 80% or greater inhibition, approx. 14 days after treating, 30/21° C.
# Protocol: as §3, §4, §2
# KCHSC (kochia) [6] = experiment: Pre-plant incorporated (PPI) herbicidal activity, cool season; type: in vivo, Kochia scoparia; conditions: for PPI activity GR80, KCHSC: pre-plant incorporated, lowest tested rate with 80% or greater inhibition, about 14 days; for Percent inhibition KCHSC: weed, PPI application
# Protocol: as §3, §4, §2
# POROL (common purslane) = experiment: Pre-plant incorporated (PPI) herbicidal activity, warm season; type: in vivo, Portulaca oleracea; conditions: GR80 = lowest tested rate with 80% or greater inhibition, approx. 14 days after treating, 30/21° C.
# Protocol: as §3, §4, §2
# CONAR (field bindweed) [7] = experiment: as above; type: in vivo, Convolvulus arvensis; conditions: GR80 = lowest tested rate with 80% or greater inhibition, approx. 14 days after treating, 30/21° C.
# Protocol: as §3, §4, §2
# ABUTH (velvetleaf) = experiment: Pre-emergence herbicidal activity, warm season; type: in vivo, Abutilon theophrasti; conditions: GR80 = lowest tested rate (300, 100, 30, 10 g/ha) with 80% or greater inhibition; approx. 14 days after treating; 30/21° C.
# Method in brief: as §1
Compound,Pre-emergence activity (GR80) DATST (DATST (jimsonweed)) [g/ha],"Pre-emergence activity GR80, KCHSC (KCHSC (kochia) [1])",Pre-emergence activity (GR80) BROTE (BROTE (downy brome)),Pre-emergence activity (GR80) CONAR (CONAR (field bindweed) [2]),Percent inhibition IPOSS ([3]; 100 g/ha) [%],Percent inhibition IPOSS ([3]; 300 g/ha) [%],Percent inhibition IPOSS ([3]; 900 g/ha) [%],Pre-emergence activity (GR80) LOLMG (LOLMG (annual ryegrass)),Pre-emergence activity (GR80) AGRRE [4] [g/ha],Percent inhibition IPOSS ([3]; 30 g/ha) [%],Pre-emergence activity (GR80) AVEFA (AVEFA (wild oat)) [g/ha],PPI activity (GR80) CIRAR [5] [g/ha],"PPI activity GR80, KCHSC (KCHSC (kochia) [6])",PPI activity (GR80) POROL (POROL (common purslane)) [g/ha],PPI activity (GR80) CONAR (CONAR (field bindweed) [7]),also measured
CCN(CC)C(=O)n1cnc(S(=O)(=O)C(F)(F)F)n1 [Example 2],300,300 g/ha,300 g/ha,300 g/ha,20,100,95,300 g/ha,100,,,,,,,
CCN(CC)C(=O)n1cnc(S(=O)(=O)C(F)(F)Cl)n1 [Example 3],100,300 g/ha,"* (activity observed, at least at highest rate, but <80% inhibition)",300 g/ha,50,100,80,,,0,,,,,,
CCN(CC)C(=O)n1cnc(S(=O)(=O)C(F)(F)C(F)(F)Br)n1 [Example 4],300,100 g/ha,300 g/ha,,80,60,100,300 g/ha,30,0,30,,,,,
CCN(CC)C(=O)n1cnc(S(=O)(=O)C(F)(F)C(=O)c2ccccc2)n1 [Example 6],,300 g/ha,,,,,,300 g/ha,300,,300,100,300 g/ha,300,"* (activity observed, at least at highest rate, but <80% inhibition)",
"CCSC(F)(F)S(=O)(=O)c1ncn(C(=O)N(CC)CC)n1 [Example 8, 1-(N,N-diethylcarbamoyl)-3-[difluoro(ethylthio)methylsulfonyl]-1,2,4-triazole]",300,[empty],"* (activity observed, at least at highest rate, but <80% inhibition)",100 g/ha,,,,,,,300,100,100 g/ha,100,300 g/ha,"Pre-emergence activity (GR80) ABUTH (ABUTH (velvetleaf)): 300 g/ha; inhibition at 30 g/ha ([3]; Ipomoea, 30 g/ha, read-out: Percent inhibition IPOSS): 0%; inhibition at 100 g/ha ([3]; Ipomoea, 100 g/ha, read-out: Percent inhibition IPOSS): 70%; inhibition at 300 g/ha ([3]; Ipomoea, 300 g/ha, read-out: Percent inhibition IPOSS): 90%; inhibition at 900 g/ha ([3]; Ipomoea, 900 g/ha, read-out: Percent inhibition IPOSS): 100%"
CCN(CC)C(=O)n1cnc(S(=O)(=O)C(F)(F)SC)n1 [Example 9],300,300 g/ha,100 g/ha,300 g/ha,100,40,100,"* (activity observed, at least at highest rate, but <80% inhibition)",,0,300,,,,,
C=C(CC(F)(F)S(=O)(=O)c1ncn(C(=O)N(CC)CC)n1)C[Si](C)(C)C [Example 20],,[empty],,"* (activity observed, at least at highest rate, but <80% inhibition)",,,,,,,,100,[empty],100,"* (activity observed, at least at highest rate, but <80% inhibition)",Percent inhibition KCHSC (KCHSC (kochia) [6]; 10 g/ha): 50%; Percent inhibition KCHSC (KCHSC (kochia) [6]; 30 g/ha): 50%; Percent inhibition KCHSC (KCHSC (kochia) [6]; 100 g/ha): 100%; Percent inhibition KCHSC (KCHSC (kochia) [6]; 300 g/ha): 100%; Percent inhibition KCHSC (KCHSC (kochia) [6]; 900 g/ha): 100%; Pre-emergence activity (GR80) ABUTH (ABUTH (velvetleaf)): 300 g/ha
